This is an account of results in BindingDB's records for patent US12415816 (Dana-Farber Cancer Institute, 2025).

The term IC50 denotes the concentration at which inhibition is half-maximal. Read a high IC50 as weaker potency.

This experiment deals with Tyrosine-protein kinase JAK2 (Homo sapiens, UniProt O60674). Briefly: Biochemical Assay. The method, then: The JAK2 Z-Lyte biochemical assay was performed according to manufacturer's instructions (Life Technologies).
Tyrosine-protein kinase JAK2, sequence (O60674 whole entry): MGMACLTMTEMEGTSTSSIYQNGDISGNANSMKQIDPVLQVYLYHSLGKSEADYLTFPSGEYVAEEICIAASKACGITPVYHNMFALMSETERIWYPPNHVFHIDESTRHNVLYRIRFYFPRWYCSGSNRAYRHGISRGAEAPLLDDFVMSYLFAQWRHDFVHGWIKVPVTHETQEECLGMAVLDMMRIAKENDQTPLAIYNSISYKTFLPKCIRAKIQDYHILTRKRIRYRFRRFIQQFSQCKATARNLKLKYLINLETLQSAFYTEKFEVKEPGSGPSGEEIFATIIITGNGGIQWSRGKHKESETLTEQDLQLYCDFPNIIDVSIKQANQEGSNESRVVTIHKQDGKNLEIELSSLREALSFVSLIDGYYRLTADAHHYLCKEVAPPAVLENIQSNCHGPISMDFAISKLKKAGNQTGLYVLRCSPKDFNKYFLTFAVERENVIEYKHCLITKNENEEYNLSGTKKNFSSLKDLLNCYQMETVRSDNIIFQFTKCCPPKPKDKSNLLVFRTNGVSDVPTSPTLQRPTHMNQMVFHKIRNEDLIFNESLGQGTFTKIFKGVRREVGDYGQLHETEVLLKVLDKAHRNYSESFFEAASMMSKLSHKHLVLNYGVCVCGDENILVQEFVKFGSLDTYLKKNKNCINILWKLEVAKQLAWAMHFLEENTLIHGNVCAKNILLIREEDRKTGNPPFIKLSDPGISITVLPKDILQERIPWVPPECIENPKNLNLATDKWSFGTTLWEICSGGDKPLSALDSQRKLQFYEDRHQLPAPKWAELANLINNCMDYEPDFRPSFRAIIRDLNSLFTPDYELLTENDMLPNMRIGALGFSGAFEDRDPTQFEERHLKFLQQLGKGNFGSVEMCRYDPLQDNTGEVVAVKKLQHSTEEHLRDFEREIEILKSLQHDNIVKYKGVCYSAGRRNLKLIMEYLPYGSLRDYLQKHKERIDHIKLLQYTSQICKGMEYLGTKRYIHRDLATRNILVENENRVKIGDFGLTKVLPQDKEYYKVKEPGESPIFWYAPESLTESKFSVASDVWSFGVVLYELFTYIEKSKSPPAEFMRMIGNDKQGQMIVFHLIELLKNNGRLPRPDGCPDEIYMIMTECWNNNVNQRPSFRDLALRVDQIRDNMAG

`CCN1CCN(Cc2cc(NC(=O)Nc3ccc(C)c(Oc4ccc5nc(NC(=O)C6CC6)sc5n4)c3)cc(C(F)(F)F)c2)CC1` [US12415816, Compound I-18]: inhibition was half-maximal at 1.45 µM (IC50).
